Measurements taken from ChEMBL document CHEMBL1138381, “Synthesis and anticonvulsant activity of sulfonamide derivatives-hydrophobic domain” (Bioorg Med Chem Lett, 2007).
Calls of active or inactive are those of the source. No cut-off for these calls is given here.

Columns and labels:
Mus musculus [1] = experiment: Anticonvulsant activity against maximal electroshock-induced seizure in Albino mouse at 300 mg/kg, ip after 0.5 hrs; assay type: functional, organism-based; parameters: dose 300 mg/kg
Mus musculus [2] = experiment: Anticonvulsant activity against pentylenetetrazole-induced seizures in Albino mouse at 300 mg/kg, ip after 0.5 hrs; assay type: functional, organism-based; parameters: dose 300 mg/kg
Rattus norvegicus [3] = experiment: Anticonvulsant activity against maximal electroshock-induced seizure in rat at 30 mg/kg, po upto 4 hrs; assay type: functional, organism-based; parameters: dose 30 mg/kg
Mus musculus [4] = experiment: Anticonvulsant activity against pentylenetetrazole-induced seizures in Albino mouse at 300 mg/kg, ip after 4 hrs; assay type: functional, organism-based; parameters: dose 300 mg/kg
Mus musculus [5] = experiment: Anticonvulsant activity against maximal electroshock-induced seizure in Albino mouse at 100 mg/kg, ip after 4 hrs; assay type: organism-based; parameters: dose 100 mg/kg, route intraperitoneal; details: in vivo
Mus musculus [6] = experiment: Neurotoxicity in Albino mouse at 300 mg/kg, ip after 0.5 hrs by rotarod test; assay type: toxicity, organism-based; parameters: dose 300 mg/kg, route intraperitoneal; details: in vivo
Rattus norvegicus [7] = experiment: Toxicity in rat at 30 mg/kg upto 4 hrs; assay type: organism-based; parameters: dose 30 mg/kg; details: in vivo
Mus musculus [8] = experiment: Neurotoxicity in Albino mouse at 300 mg/kg, ip after 4 hrs by rotarod test; assay type: toxicity, organism-based; parameters: dose 300 mg/kg, route intraperitoneal; details: in vivo
Mus musculus [9] = experiment: Anticonvulsant activity against maximal electroshock-induced seizure in Albino mouse at 100 mg/kg, ip after 0.5 hrs; assay type: organism-based; parameters: dose 100 mg/kg, route intraperitoneal; details: in vivo
Mus musculus [10] = experiment: Anticonvulsant activity against maximal electroshock-induced seizure in Albino mouse at 300 mg/kg, ip after 4 hrs; assay type: functional, organism-based; parameters: dose 300 mg/kg
Mus musculus [11] = experiment: Anticonvulsant activity against maximal electroshock-induced seizure in Albino mouse at 30 mg/kg, ip after 4 hrs; assay type: functional, organism-based; parameters: dose 30 mg/kg
Rattus norvegicus [12] = experiment: Anticonvulsant activity against maximal electroshock-induced seizure in rat at 30 mg/kg, po after 0.25 hrs; assay type: functional, organism-based; parameters: dose 30 mg/kg
Rattus norvegicus [13] = experiment: Anticonvulsant activity against maximal electroshock-induced seizure in rat at 30 mg/kg, po after 1 hr; assay type: functional, organism-based; parameters: dose 30 mg/kg
Rattus norvegicus [14] = experiment: Anticonvulsant activity against maximal electroshock-induced seizure in rat at 30 mg/kg, po after 0.5 hrs; assay type: functional, organism-based; parameters: dose 30 mg/kg
Mus musculus [15] = experiment: Neurotoxicity in Albino mouse at 100 mg/kg, ip after 4 hrs by rotarod test; assay type: toxicity, organism-based; parameters: dose 100 mg/kg, route intraperitoneal; details: in vivo
Mus musculus [16] = experiment: Anticonvulsant activity against maximal electroshock-induced seizure in Albino mouse at 30 mg/kg, ip after 0.5 hrs; assay type: functional, organism-based; parameters: dose 30 mg/kg
Mus musculus [17] = experiment: Neurotoxicity in Albino mouse at 100 mg/kg, ip after 0.5 hrs by rotarod test; assay type: toxicity, organism-based; parameters: dose 100 mg/kg, route intraperitoneal; details: in vivo
Mus musculus [18] = experiment: Anticonvulsant activity against pentylenetetrazole-induced seizures in Albino mouse at 100 mg/kg, ip after 0.5 hrs; assay type: functional, organism-based; parameters: dose 100 mg/kg

| Compound | Activity (Mus musculus [1]) | Activity (Mus musculus [2]) | Activity (Rattus norvegicus [3]) | Activity (Mus musculus [4]) | Activity (Mus musculus [5]) | Activity (Mus musculus [6]) | Activity (Rattus norvegicus [7]) | Activity (Mus musculus [8]) | Activity (Mus musculus [9]) | Activity (Mus musculus [10]) | Activity (Mus musculus [11]) | Activity (Rattus norvegicus [12]) | Activity (Rattus norvegicus [13]) | Activity (Rattus norvegicus [14]) | Activity (Mus musculus [15]) | Activity (Mus musculus [16]) | Activity (Mus musculus [17]) | Activity (Mus musculus [18]) |
| --- | --- | --- | --- | --- | --- | --- | --- | --- | --- | --- | --- | --- | --- | --- | --- | --- | --- | --- |
| CNC(=S)Nc1ccc(S(=O)(=O)Nc2nc3ccc(Cl)cc3s2)cc1 | inactive | inactive | Active | Active | Active | Non-toxic | Non-toxic | Toxic | – | – | – | – | – | – | – | – | – | – |
| Cc1ccc(NC(=S)Nc2ccc(S(=O)(=O)Nc3ccc(Cl)cc3)cc2)cc1 | – | Active | – | – | – | Toxic | – | Toxic | Active | Active | – | – | – | – | – | – | – | – |
| Cc1ccc(NC(=S)Nc2ccc(S(=O)(=O)Nc3ccc(Br)cc3)cc2)cc1 | – | Active | – | inactive | – | Toxic | – | Toxic | Active | Active | – | – | – | – | – | – | – | – |
| CNC(=S)Nc1ccc(S(=O)(=O)Nc2ccc(Cl)cc2)cc1 | Active | Active | – | – | – | Toxic | – | Toxic | – | Active | – | – | – | – | – | – | – | – |
| Cc1ccc(NC(=S)Nc2ccc(S(=O)(=O)Nc3ccc(C)cc3)cc2)cc1 | Active | Active | – | inactive | – | Toxic | – | Non-toxic | – | Active | – | – | – | – | – | – | – | – |
| CNC(=S)Nc1ccc(S(=O)(=O)Nc2nc3ccc(F)cc3s2)cc1 | Active | inactive | – | inactive | – | Non-toxic | – | Non-toxic | – | inactive | – | – | – | – | – | – | – | – |
| CCNC(=S)Nc1ccc(S(=O)(=O)Nc2nc3ccc(OC)cc3s2)cc1 | inactive | inactive | – | inactive | – | Non-toxic | – | Non-toxic | – | inactive | – | – | – | – | – | – | – | – |
| CCNC(=S)Nc1ccc(S(=O)(=O)Nc2nc3ccc(Cl)cc3s2)cc1 | inactive | inactive | Active | Active | – | Non-toxic | Non-toxic | Toxic | – | – | Active | inactive | inactive | inactive | – | – | – | – |
| CNC(=S)Nc1ccc(S(=O)(=O)Nc2ccc(Br)cc2)cc1 | Active | Active | – | inactive | – | Toxic | – | Non-toxic | – | – | – | – | – | – | – | – | – | – |
| CCC1(C)CC(=O)NC1=O (stereo not given) [ETHOSUXIMIDE] | inactive | Active | – | inactive | – | Non-toxic | – | Non-toxic | – | inactive | – | – | – | – | – | – | – | – |
| CCNC(=S)Nc1ccc(S(=O)(=O)Nc2nc3ccc(F)cc3s2)cc1 | Active | Active | – | inactive | – | Non-toxic | – | Non-toxic | – | inactive | – | – | – | – | – | – | – | – |
| CNC(=S)Nc1ccc(S(=O)(=O)Nc2nc3ccc(OC)cc3s2)cc1 | Active | inactive | – | inactive | – | Non-toxic | – | Non-toxic | – | inactive | – | – | – | – | – | – | – | – |
| O=C1NC(=O)C(c2ccccc2)(c2ccccc2)N1 [PHENYTOIN] | – | inactive | – | inactive | – | – | – | – | – | – | Active | – | – | Active | Toxic | Active | Toxic | – |
| NC(=O)N1c2ccccc2C=Cc2ccccc21 [CARBAMAZEPINE] | – | – | – | inactive | – | – | – | Toxic | – | inactive | – | – | – | – | – | Active | Toxic | Active |
| CCCC(CCC)C(=O)O [VALPROIC ACID] | inactive | Active | – | inactive | – | Non-toxic | – | Non-toxic | – | inactive | – | – | – | – | – | – | – | – |
